Data taken from PubChem BioAssay (NCI).
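Briefly, cells in 96-well plates were exposed to five compound concentrations for 48 h, and endpoints were estimated by linear interpolation. The concentration for full growth arrest is given as TGI.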

Experiments:
Assay in all cases: NCI-60 cell line screen, 48 h
EKVX NSCLC = system: EKVX NSCLC
HT29 colon = system: HT29 colon
NCI-H226 lung = system: NCI-H226 lung
NCI/ADR-RES ovarian = system: NCI/ADR-RES ovarian
OVCAR-5 ovarian = system: OVCAR-5 ovarian
OVCAR-8 ovarian = system: OVCAR-8 ovarian
SNB-19 CNS = system: SNB-19 CNS
U251 CNS = system: U251 CNS
UACC-257 melanoma = system: UACC-257 melanoma
UACC-62 melanoma = system: UACC-62 melanoma

Compound | TGI (EKVX NSCLC) [µM] | TGI (HT29 colon) [µM] | TGI (NCI-H226 lung) [µM] | TGI (NCI/ADR-RES ovarian) [µM] | TGI (OVCAR-5 ovarian) [µM] | TGI (OVCAR-8 ovarian) [µM] | TGI (SNB-19 CNS) [µM] | TGI (U251 CNS) [µM] | TGI (UACC-257 melanoma) [µM] | TGI (UACC-62 melanoma) [µM]
C1OCN2c3nonc3N3COCN4c5nonc5N1C2C43 (stereo not given) | > 100 | > 100 | > 100 | > 100 | > 100 | > 100 | > 100 | > 100 | > 100 | > 100
N=C1N=C(N)c2cc3c(cc21)SCCSCCCSCCS3 | > 58.5 | > 48.6 | > 73.2 | > 100 | 40.3 | 41.3 | 32.3 | > 50.7 | 44 | > 54.7
CC(=O)OCC1OC(OCC2OC(N3C(=S)N[C@H]([C@@H](O)[C@H](O)[C@H](O)CO)[C@H]3O)C(OC(C)=O)C(OC(C)=O)C2OC(C)=O)C(OC(C)=O)C(OC(C)=O)C1OC(C)=O (stereo not given in full) |  | > 100 |  | > 100 | > 100 | > 100 | > 100 | > 100 |  | > 100
Cc1ccc([N+](=O)[O-])cc1S(=O)(=O)Nc1ccc(C2=NN(c3ccc([N+](=O)[O-])cc3[N+](=O)[O-])C(c3ccccc3O)C2)cc1 (stereo not given) | 90.6 | > 100 | > 100 | > 100 | > 100 | > 100 | > 100 | > 100 | 82.7 | 
O=C1C[C@H](c2ccccc2)C2(C(=O)c3ccccc3C2=O)[C@@H](c2ccccc2)C1 |  | > 100 | 69.1 | > 100 | > 100 | > 100 | > 100 | > 100 |  | 26.7
CCCCCCC(CCl)c1sc(-c2csc(CCNC(=O)OC(C)(C)C)n2)nc1C(=O)OC (stereo not given) | > 100 | 51.2 |  | 14.8 | > 100 | > 100 | > 100 | 38 | 67.6 | 38.9
CC(=O)c1ccc(NC(=O)/C(=N\NC(N)=O)C(C#N)CC(C)(C)C=O)cc1 (stereo not given) | > 100 | > 100 | > 100 |  | > 100 | > 100 | > 100 | > 100 | > 100 | > 100
CC(=O)O[C@H]1CC[C@@]2(C)C(=CC[C@@H]3[C@@H]2CC[C@]2(C)c4nc(N)c(C#N)cc4C[C@@H]32)C1 | > 86.9 | > 62.2 | > 100 |  | > 100 | > 100 | > 100 | > 100 | > 100 | > 100
C[C@]12CCC(=O)C=C1CC[C@@H]1[C@@H]2C(=O)C[C@@]2(C)[C@H]1CC[C@]2(O)C(=O)CO | > 100 | > 100 | > 100 |  |  | > 100 | > 100 | > 100 |  | 
O=C(NCCO)c1c(O)c2ccccc2[nH]c1=O | > 100 | > 100 | > 100 | > 100 | > 100 | > 100 | > 100 | > 100 | > 100 | 
C=C(C)CC1=C(C(=S)NCCO[Si](C)(C)C(C)(C)C)C(OCC)(OCC)C1=O | 34.4 | > 100 |  | > 100 | 28.5 | > 100 | 38.3 | 63 | 32.1 | 33.4
O=C1CCC2=C(CCC2)N1CCc1ccc2c(c1)OCO2 | > 100 | > 100 | > 100 | > 100 | > 100 |  | > 100 | > 100 | > 100 | > 100
COC(=O)c1ccc(C)cc1C1CN=NC12Cc1cc(C)c(C)cc1C2=O (stereo not given) | 99.7 | > 100 | > 100 | > 100 | > 100 | > 100 | > 100 | > 100 | > 100 | 
COc1ccc(C2C(C(=O)O)=C(COC(C)=O)Oc3cc4c(cc32)OCO4)cc1 (stereo not given) | > 100 | > 100 |  |  |  | > 100 | > 100 | > 100 | > 100 | > 100
Cc1ccc(NC(=O)c2cccc([N+](=O)[O-])c2O)c(C)c1 | 98.6 | > 100 | > 100 |  | > 100 | > 100 | > 100 | > 100 | 66.2 | > 100
c1ccc(C(=NNc2nc3ccccc3[nH]2)c2ccccn2)nc1 | 3.38 | 12.1 | 0.448 | 0.583 | 5.18 | > 33.2 | > 100 | > 69 | 1.92 | 
O=C1c2ccccc2C2(c3ccc(Cl)cc3)NCc3ccccc3CN12 (stereo not given) | 49.1 | 28.5 |  | 29.9 | 58.1 | 60.8 | 51.6 | > 100 | > 100 | 33.5
C=C1C(=O)[C@]23[C@H](O)[C@H]1CC[C@H]2[C@@]12CO[C@@]3(O)C[C@@H]1C(C)(C)CC[C@@H]2O | > 25 | > 25 | > 25 | > 25 | > 25 | > 25 | > 25 |  | 21.1 | 
CC(=O)NC1C(OCc2ccccc2)OC(CO)C(O)C1OCC(=O)NC(C)C(=O)NC(CCC(=O)NCCCCCC(=O)Nc1ccc2c(c1)CN1C(=O)c3ccccc3C1=N2)C(N)=O (stereo not given) | > 100 | > 100 |  | > 100 | > 100 | > 100 | > 100 | > 100 | > 100 | > 100
CN(N)C(=O)NCCCl | > 100 | > 100 | 6.42 | 0.31 | > 100 |  | > 100 | > 100 | > 100 | > 100
COC(=O)C[C@H](COCc1ccccc1)NC(=O)C[C@H](COCc1ccccc1)NC(=O)C[C@H](COCc1ccccc1)NC(=O)OC(C)(C)C | > 100 | > 100 | > 100 | > 100 | > 100 | > 100 | > 100 | > 100 |  | > 100
O=C1C=CC2(O[C@@H](Cc3ccccc3)[C@H](Cc3ccccc3)O2)C(SC(=O)c2ccccc2)C1 (stereo not given in full) |  | 3.08 | 3.2 | 4.06 | 1.74 | 0.549 | 7.28 | 2.56 | 2.55 | 5.04
CC(O)(c1ccccc1)c1nccc2ccccc12 (stereo not given) |  | > 100 | > 100 | > 100 | > 100 | > 100 | > 100 | > 100 | > 100 | > 100
